The results in this text go back to patent US10525021B2, “Mitochondrial uncouplers for treatment of metabolic diseases and cancer” (RUTGERS, THE STATE UNIVERSITY OF NEW JERSEY, priority 2014, dated 2020).

Usually EC50 stands for the concentration needed to bring the measured effect to its halfway point.

Like-named read-outs stand apart in the source and are kept apart here.

Holding throughout (assay type): cell-based
Assay [1] relates to NIH-3T3 cells, or HepG2 cells. As to the kind of experiment: Mitochondrial uncoupling activity assay (loss of mitochondrial TMRE staining in live cells). The conditions noted are these: 2 h, read-out: Activities (mitochondrial uncoupling activity, EC50). As for the experimental part:
Mitochondrial uncoupling analyses in live cells were performed with cultured mammalian cells, the NIH-3T3 cells, or HepG2 cells. Cells were seeded onto 6-well plate and cultured in DMEM medium supplemented with 10% fetal bovine serum and 2 mM glutamine. Cells were allowed to grow to logarithmic growth phase prior to experiments. The cells were treated with each individual synthesized compound at various concentrations for two hours, followed by staining with TMRE (tetramethylrhodamine ethyl ester) at final concentration of 100 nM for 15 minutes. The cells were then washed once with PBS, and examined under fluorescence microscopy. A positive control of cells treated with various concentrations of niclosamide ethanolamine were used as positive control. Percentage of cells losing mitochondrial TMRE staining was used as a quantification of mitochondrial uncoupling activity.

The test system of the next assay is AMPK. As to the kind of experiment: AMPK activation analysis by immunoblotting with antibody against phosphorylated AMPK. The conditions noted are these: two-hour treatment, phospho-AMPKα (Thr172) immunoblot. As for the experimental part: AMPK activation analysis by immunoblotting assay with antibody against phosphorylated AMPK: mouse pancreatic cancer cell line, Panc02, or NIH-3T3 fibroblasts, or human liver carcinoma cell line HepG2, were cultured in Dulbecco's modified Eagle's medium (DMEM) supplemented with 10% (vol/vol) fetal bovine serum, 100 unit·ml^−1 of penicillin, 100 μg·ml^−1 of streptomycin and 0.29 mg·ml^−1 of L-glutamine at 37° C. and 5% CO2. For treatment, individual compound was first dissolved in DMSO to make stock solution, and then was added directly to the culturing medium to desired concentration by at least 1:1000 dilution. After a two-hour treatment, cells were collected and homogenized within lysis buffer containing 10 mM TRIS-HCl (pH 7.9), 10% glycerol, 0.1 mM EDTA, 100 mM KCl, 0.2% NP-40, 0.5 mM PMSF, 1 mM DTT, mini-complete protease inhibitor cocktail (Roche, 11836153001), and phosphatase inhibitor cocktail (Roche, 04906845001) if required. Nuclei and insoluble debris were pelleted in an Eppendorf micro-centrifuge at 10,000 rpm for 5 min at 4° C. Cell extracts were then stored at −20° C. or immediately subjected to sodium dodecyl sulfate-polyacrylamide gel electrophoresis (SDS-PAGE). […] Quantification was determined by measuring band intensity using ImageJ software and calculating the ratio of protein of interesting to internal loading control. […]

In assay [2] the test system is mouse colon cancer cell line MC38. As to the kind of experiment: Clonogenic assay for cell proliferation inhibition (colony formation). The conditions noted are these: MC-38, MC38 cells, treated 24-48 hrs, colonies counted after 2 weeks, read-out: IC50 concentrations (inhibition of colony formation). As to the method: Clonogenic assay for determining activity of cell proliferation inhibition: mouse colon cancer cell line MC38 was seeded onto 6-well plates at the density of about 200 cells per well, grown under medium conditions as described above, after attachment, cells were treated with ascending concentrations of example compounds for 24-48 hrs. The drug-containing medium was then removed and fresh medium without drug was added to each well. Cells were then grown for 2 weeks for colony formation. During the two weeks, old medium was aspirated out and fresh drug-free medium was added to the wells every two days. At the end of the experiment, the colonies were counted for the treatment at each concentration. IC50 is defined as the concentration that inhibits 50% of colony formation as compared to the no drug treatment control.

The mark [3] stands for this setting: two-hour treatment, TMRE 100 nM staining, concentration at which mitochondrial TMRE fluorescence is reduced to about 50%.

With `O=C(Nc1cnccn1)c1cc(Cl)ccc1O` [Compound 1, 5-Chloro-2-hydroxy-N-(pyrazin-2-yl)benzamide], the EC50 in assay [1] was less than 10 µM.

Regarding `O=C(Nc1cnc(Br)cn1)c1cc(Cl)ccc1O` [Compound 2, N-(5-Bromopyrazin-2-yl)-5-chloro-2-hydroxybenzamide], the “Concentrations for AMPK activation” value in the assay on AMPK is given as “*** (<=10 μM)”. Also, in assay [1] (setting [3]), the EC50 was less than 10 µM.

Turning to `N#Cc1cnc(NC(=O)c2cc(Cl)ccc2O)cn1` [Compound 3, 5-Chloro-N-(5-cyanopyrazin-2-yl)-2-hydroxybenzamide], the EC50 in assay [1] was less than 10 µM.

Take `N#Cc1cnc(NC(=O)c2cc(Cl)ccc2O)c(Cl)n1` [Compound 4, 5-Chloro-N-(3-chloro-5-cyanopyrazin-2-yl)-2-hydroxybenzamide]: the EC50 in assay [1] was more than 50 µM.

Consider `O=C(Nc1cncnc1)c1cc(Cl)ccc1O` [Compound 5, 5-Chloro-2-hydroxy-N-(pyrimidin-5-yl)benzamide], for which the concentration giving a half-maximal response (EC50) in assay [1] is more than 50 µM.

With `O=C(Nc1cnc(Cl)nc1Cl)c1cc(Cl)ccc1O` [Compound 6, 5-Chloro-N-(2,4-dichloropyrimidin-5-yl)-2-hydroxybenzamide], the EC50 in assay [1] (setting [3]) is more than 50 µM.

Regarding `O=C(Nc1cnc(Cl)nc1)c1cc(Cl)ccc1O` [Compound 7, 5-Chloro-N-(2-chloropyrimidin-5-yl)-2-hydroxybenzamide], in assay [1] (setting [3]), the EC50 is less than 10 µM.

As for `N#Cc1ncc(NC(=O)c2cc(Cl)ccc2O)cn1` [Compound 8, 5-Chloro-N-(2-cyanopyrimidin-5-yl)-2-hydroxybenzamide], the EC50 in assay [1] (setting [3]) lay in the range of 10 to 50 µM.

In the case of `O=C(Nc1cccnn1)c1cc(Cl)ccc1O` [Compound 9, 5-Chloro-2-hydroxy-N-(pyridazin-3-yl)benzamide], in assay [1], the EC50 was more than 50 µM.

For the molecule `O=C(Nc1ccc(Cl)nn1)c1cc(Cl)ccc1O` [Compound 10, 5-Chloro-N-(6-chloropyridazin-3-yl)-2-hydroxybenzamide], the concentration for a half-maximal effect (EC50) in assay [1] was 10 to 50 µM.

Turning to `N#Cc1ccc(NC(=O)c2cc(Cl)ccc2O)nc1` [Compound 11, 5-Chloro-N-(5-cyanopyridin-2-yl)-2-hydroxybenzamide], the EC50 in assay [1] fell in the range of 10 to 50 µM.

Consider `CCOP(=O)(O)Oc1ccc(Cl)cc1C(=O)Nc1ccc(C#N)cc1Cl` [Compound 12, 4-Chloro-2-((2-chloro-4-cyanophenyl)carbamoyl)phenyl ethyl hydrogen phosphate], for which the EC50 in assay [1] was more than 50 µM.

As to `N#Cc1ccc(NC(=O)c2cc(Cl)ccc2OP(=O)(O)O)c(Cl)c1` [Compound 13, 4-Chloro-2-((2-chloro-4-cyanophenyl)carbamoyl)phenyl dihydrogen phosphate], in the assay with AMPK, the “Concentrations for AMPK activation” value is given as “*** (<=10 μM)”. Also, the 50% effective concentration (EC50) in assay [1] is less than 10 µM.

With `N#Cc1ccc(NC(=O)c2cc(Cl)ccc2OP(=O)(O)O)c(Cl)c1` [Compound 14, Sodium 4-chloro-2-((2-chloro-4-cyanophenyl)carbamoyl)phenyl phosphate], the IC50 in assay [2] is not above 10 µM.

With `O=C(Nc1ccc2scnc2c1)c1cc(Cl)ccc1O` [Compound 15, N-(Benzo[d]thiazol-5-yl)-5-chloro-2-hydroxybenzamide], the EC50 in assay [1] (setting [3]) was less than 10 µM.

Regarding `N#Cc1cnc(NC(=O)c2cc(Cl)ccc2O)s1` [Compound 16, 5-chloro-N-(5-cyanothiazol-2-yl)-2-hydroxybenzamide], in assay [1] (setting [3]), the 50% effective concentration (EC50) was less than 10 µM.

Consider `O=C(Nc1nc2c(F)cccc2s1)c1cc(Cl)ccc1O` [Compound 18, 5-Chloro-N-(4-fluorobenzo[d]thiazol-2-yl)-2-hydroxybenzamide], for which the concentration for a half-maximal effect (EC50) in assay [1] was less than 10 µM.

Regarding `N#Cc1cnc(NC(=O)c2cc(Cl)ccc2OP(=O)(O)O)cn1` [Compound 19, 4-Chloro-2-((5-cyanopyrazin-2-yl)carbamoyl)phenyl dihydrogen phosphate], the EC50 in assay [1] is less than 10 µM.

With `O=C(Nc1ccc2ccncc2c1)c1cc(Cl)ccc1O` [Compound 21, 5-Chloro-2-hydroxy-N-(isoquinolin-7-yl)benzamide], the concentration giving a half-maximal response (EC50) in assay [1] (setting [3]) was in the range of 10 to 50 µM.

For `O=C(Nc1ccc2nccnc2c1)c1cc(Cl)ccc1O` [Compound 22, 5-Chloro-2-hydroxy-N-(quinoxalin-6-yl)benzamide], the EC50 in assay [1] (setting [3]) lay in the range of 10 to 50 µM.

On to `O=C(Nc1nc2c(C(F)(F)F)cccc2s1)c1cc(Cl)ccc1O` [Compound 29, 5-Chloro-2-hydroxy-N-(4-(trifluoromethyl)benzo[d]thiazol-2-yl)benzamide], for which, in assay [1], the 50% effective concentration (EC50) is less than 10 µM.

For `O=C(Nc1nc2ccc(C(F)(F)F)cc2s1)c1cc(Cl)ccc1O` [Compound 31, 5-chloro-2-hydroxy-N-(6-(trifluoromethyl)benzo[d]thiazol-2-yl)benzamide], in assay [1], the concentration for a half-maximal effect (EC50) was less than 10 µM.

For `O=C(Nc1cnc(C(F)(F)F)cn1)c1cc(Cl)ccc1O` [Compound 35, 5-chloro-2-hydroxy-N-(5-(trifluoromethyl)pyrazin-2-yl)benzamide], the 50% effective concentration (EC50) in assay [1] (setting [3]) was less than 10 µM.

With `N#Cc1ccc2nc(NC(=O)c3cc(Cl)ccc3O)sc2c1` [Compound 36, 5-chloro-N-(6-cyanobenzo[d]thiazol-2-yl)-2-hydroxybenzamide], in assay [1] (setting [3]), the concentration for a half-maximal effect (EC50) was less than 10 µM.
